Results taken from patent US11370804B2, “Complex of gadolinium and a chelating ligand derived from a diastereoisomerically enriched PCTA and preparation and purification process” (GUERBET, priority 2020, dated 2022).

How the values were obtained:
[1] = decomplexation kinetics (kinetic inertia) in acidic aqueous solution, pH 1.2, 37° C.; assay type: physicochemical; conditions: same conditions (pH 1.2, 37° C.), comparative
Description: Besides, iso4 is the group of isomers which has the best kinetic inertia (also known as kinetic stability) among the four groups isolated by the inventors. Specifically, the inventors evaluated the kinetic inertia of the four groups of isomers by studying their decomplexation kinetics in acidic aqueous solution (pH=1.2), at 37° C. The half-life time values (T1/2) which were determined for each of the groups of isomers are indicated in table 1 below, the half-life time corresponding to the time after which 50% of the amount of complex initially present has been dissociated, according to the following decomplexation reaction (equation 2): […]

[2] = as described in WO 2014/174120 / for comparative purposes; cited from earlier work

| kinetic inertia [1] [h] | kinetic inertia (dissociation, in words) [1] | Compound | log (Ktherm), stability constant [2] |
| --- | --- | --- | --- |
| 18 | – | O=C([O-])CN1CCN(CC(=O)[O-])CCN([C@H](CO)[C@H](O)CO)CCN(CC(=O)[O-])CC1.[Gd+3] (racemic) [gadobutrol] | – |
| 96 | – | O=C([O-])CN1CCN(CC(=O)[O-])CCN(CC(=O)O)CCN(CC(=O)[O-])CC1.[Gd+3] [DOTA-Gd, gadolinium complex of 1,4,7,10-tetraazacyclododecane-N,N′,N″,N′″-tetraacetic acid] | 25.6 |
| – | dissociate instantaneously | CNC(=O)CN(CCN(CCN(CC(=O)[O-])CC(=O)NC)CC(=O)[O-])CC(=O)[O-].[Gd+3] [gadodiamide] | – |
| – | dissociate instantaneously | O=C([O-])CN(CCN(CC(=O)[O-])CC(=O)O)CCN(CC(=O)[O-])CC(=O)O.[Gd+3] [gadopentetate] | – |
